Structures are written as SMILES.

Test [1] relates to Grb10 mRNA in TSC2−/− cells. Briefly: Quantitative RT-PCR of Grb10 mRNA. The conditions noted are these: three biological replicates. The class given is cell-based, mouse. The source says: FIG. 3. mTOR-mediated Grb10 phosphorylation is important for Grb10 stability. (A) Grb10 interacts with raptor, but not rictor. HA-tagged Grb10 was co-transfected with Myc-raptor or Myc-rictor in HEK293T cells. Cells were lysed in lysis buffer A, and the lysates were subjected to immunoprecipitation using anti-HA antibody conjugated beads. Raptor and rictor were probed with an antibody against the Myc-tag. (B) Grb10 is phosphorylated by mTOR in vitro. […] Phosphorylation of Grb10 at S501/S503 was detected by using the phospho-specific antibody against these two sites. (C) Long-term rapamycin treatment leads to Grb10 degradation in TSC2−/− cells. […] Grb10 is highly overexpressed in TSC2−/− cells. mRNA level was determined using quantitative RT-PCR based on three biological replicate experiments. […] Endogenous Grb10 was detected using an antibody that preferentially recognizes mouse Grb10 whereas the Grb10 DD mutant (of human origin) was detected using an anti-HA antibody. […]
Total cellular RNA was purified from cultured cells using the RNeasy mini kit (Qiagen) following the manufacturer's protocol. For quantitative real-time PCR (qRT-PCR), RNA was reverse-transcribed using the High-Capacity cDNA Reverse Transcription Kit (Applied Biosystems) according to the manufacturer's instructions. The resulting cDNA was analyzed by qRT-PCR using the QuantiTect SYBR Green qPCR System (Qiagen). […]

In test [2] the test system is Grb10 protein in TSC2−/− cells. Description: Immunoblot of Grb10 protein level after long-term treatment. The class given is cell-based, mouse. The conditions noted are these: TSC2−/− MEFs stably expressing HA-tagged Grb10-DD, long-term 20 nM rapamycin. The source says: FIG. 3. mTOR-mediated Grb10 phosphorylation is important for Grb10 stability. (A) Grb10 interacts with raptor, but not rictor. HA-tagged Grb10 was co-transfected with Myc-raptor or Myc-rictor in HEK293T cells. Cells were lysed in lysis buffer A, and the lysates were subjected to immunoprecipitation using anti-HA antibody conjugated beads. Raptor and rictor were probed with an antibody against the Myc-tag. (B) Grb10 is phosphorylated by mTOR in vitro. […] Phosphorylation of Grb10 at S501/S503 was detected by using the phospho-specific antibody against these two sites. (C) Long-term rapamycin treatment leads to Grb10 degradation in TSC2−/− cells. Note that Grb10 protein expression levels inversely correlated with Akt activity. Grb10 is highly overexpressed in TSC2−/− cells. mRNA level was determined using quantitative RT-PCR based on three biological replicate experiments. (D) Knockdown of raptor in TSC2−/− cells decreased Grb10 protein level. Cells were starved overnight and the lysates were probed with the antibodies indicated. (E) Grb10 is highly overexpressed in TSC2−/− cells. (F) S501A/S503A mutant is unstable compared with the wild-type or the S501D/S503D mutant. The same amount of DNA was transfected into HEK293T cells. […] Endogenous Grb10 was detected using an antibody that preferentially recognizes mouse Grb10 whereas the Grb10 DD mutant (of human origin) was detected using an anti-HA antibody.
FIG. 9. Phosphorylation of Grb10 at S501/S503 regulates its stability. […] Preincubation of the antibody with the […] completely eliminated the immunoreactivity. (B) Further validation of the phospho-specific antibody raised against the Grb10 S501/S503 sites. Grb10 WT, S501A/S503A (AA) and S501D/S503D (DD) were transfected into HEK239T cells and were probed with the antibody. Note that this antibody detected wild type (WT) Grb10, but neither of the mutant proteins. (C) Treatment of TSC2−/− cells with various mTOR kinase inhibitors led to Grb10 degradation. […] (E) Grb10 is highly overexpressed in TSC1−/− cells compared with their wild-type counterparts. (F) rapamycin treatment of TSC2−/− cells stably expressing wild type (WT) Grb10 led to lower levels of both endogenous and exogenous Grb10.
In addition, long-term treatment with mTOR kinase inhibitors, including LY-294002, NVP-BEZ235, torin and pp 242 all led to reduced Grb10 protein expression (FIG. 9C). Similar results were obtained in TSC1−/− MEFs (FIG. 9D). In contrast, we found Grb10 was highly overexpressed in TSC2−/− and TSC1−/− MEFs compared with their wild-type counterparts (FIGS. 3E and 9E), correlating with elevated mTORC1 activity in these cells. […]
For orientation: In western blotting, separated proteins are transferred to a membrane and probed.

As to `CO[C@H]1C[C@@H]2CC[C@@H](C)[C@@](O)(O2)C(=O)C(=O)N2CCCC[C@H]2C(=O)O[C@H]([C@H](C)C[C@@H]2CC[C@@H](O)[C@H](OC)C2)CC(=O)[C@H](C)/C=C(\C)[C@@H](O)[C@@H](OC)C(=O)[C@H](C)C[C@H](C)/C=C/C=C/C=C/1C` [rapamycin], in test [1], the “decrease in Grb10 mRNA levels after long-term rapamycin” value is recorded as “approximately 2 fold”. Also, in test [2], the “Grb10 S501D/S503D (DD) mutant protein levels” value is recorded as “no effect”.

The values above are taken from patent US20130252950A1, “TARGETING MTOR SUBSTRATES IN TREATING PROLIFERATIVE DISEASES” (President and Fellows of Harvard College, priority 2010, published 2013).
